According to ChEMBL document CHEMBL1201862, “PubChem BioAssay data set” (2004):
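Dose response: 5 concentrations. Exposure: 48 h. Format: 96-well plates. Endpoint: linear interpolation; highest concentration if not reached. GI50 marks 50% less growth.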 Active and inactive are the calls of the source. Cut-off read from the data, not from the text of the source: active = GI50 up to about 1.1 µM and inactive = higher.

Assays:
Test in all cases: NCI anticancer screen, dose series, 48 h
OVCAR-8 = system: OVCAR-8
TK-10 = system: TK-10
SNB-19 = system: SNB-19
PC-3 = system: PC-3
MDA-MB-231 = system: MDA-MB-231
MOLT-4 = system: MOLT-4
MDA-MB-435 = system: MDA-MB-435
SK-MEL-28 = system: SK-MEL-28
NCI/ADR-RES = system: NCI/ADR-RES
CCRF-CEM = system: CCRF-CEM
NCI-H460 = system: NCI-H460
SR = system: SR
RPMI-8226 = system: RPMI-8226
UACC-257 = system: UACC-257
A498 = system: A498
HCT-15 = system: HCT-15
K562 = system: K562
SF-295 = system: SF-295
CAKI-1 = system: CAKI-1
T47D = system: T47D

Structure (SMILES)	GI50 (OVCAR-8)	GI50 (TK-10)	GI50 (SNB-19)	GI50 (PC-3)	GI50 (MDA-MB-231)	GI50 (MOLT-4)	GI50 (MDA-MB-435)	GI50 (SK-MEL-28)	GI50 (NCI/ADR-RES)	GI50 (CCRF-CEM)	GI50 (NCI-H460)	GI50 (SR)	GI50 (RPMI-8226)	GI50 (UACC-257)	GI50 (A498)	GI50 (HCT-15)	GI50 (K562)	GI50 (SF-295)	GI50 (CAKI-1)	GI50 (T47D)
CC(=O)Nc1ccc2nc(-c3cccc(Cl)c3)cc(O)c2c1	36.9 µM (inactive)	> 100 µM (inactive)	7.62 µM (inactive)	4.72 µM (inactive)	0.863 µM (active)	5.35 µM (inactive)	2.35 µM (inactive)	39.3 µM (inactive)	> 100 µM (inactive)	3.44 µM (inactive)	> 10 µM (inactive)	5.37 µM (inactive)	66.1 µM (inactive)	> 100 µM (inactive)						
O=C(OCc1ccccc1C1CSCSC1)c1cc(C(=O)OCc2ccccc2C2CSCSC2)c(C(=O)OCc2ccccc2C2CSCSC2)cc1C(=O)OCc1ccccc1C1CSCSC1	> 100 µM (inactive)	> 100 µM (inactive)				> 100 µM (inactive)		> 100 µM (inactive)		> 100 µM (inactive)	> 100 µM (inactive)	> 100 µM (inactive)	> 100 µM (inactive)	> 100 µM (inactive)	> 100 µM (inactive)	> 100 µM	> 100 µM (inactive)	> 100 µM (inactive)	> 100 µM (inactive)	
CS(=O)(=O)N1CC(CI)c2ccc(O)cc21 (stereo not given)	2.89 µM (inactive)	2.28 µM (inactive)		2.6 µM (inactive)	2.84 µM (inactive)	0.809 µM (active)	1.89 µM (inactive)	3.23 µM (inactive)	2.75 µM (inactive)	0.807 µM (active)	2.35 µM (inactive)	1.4 µM (inactive)	1.61 µM (inactive)	3.36 µM (inactive)	2.77 µM (inactive)	3.13 µM	2.66 µM (inactive)	3.51 µM (inactive)	1.96 µM (inactive)	
COC1=CC(=O)N(C(=O)C2CSC(C(CO)NC(=O)c3csc(/C=N/O)n3)=N2)C1 (stereo not given)	> 100 µM (inactive)	> 100 µM (inactive)	> 100 µM (inactive)	> 100 µM (inactive)	> 100 µM (inactive)	> 100 µM (inactive)	> 100 µM (inactive)	> 100 µM (inactive)	> 100 µM (inactive)	> 100 µM (inactive)	> 100 µM (inactive)	> 100 µM (inactive)	> 100 µM (inactive)	> 100 µM (inactive)	> 100 µM (inactive)	> 100 µM	> 100 µM (inactive)	> 100 µM (inactive)	> 100 µM (inactive)	
N#Cc1ccccc1/C=N/O	> 100 µM (inactive)	> 100 µM (inactive)	> 100 µM (inactive)			> 100 µM (inactive)		> 100 µM (inactive)		> 50.8 µM (inactive)	> 59.2 µM (inactive)	> 100 µM (inactive)	> 42.2 µM (inactive)	> 100 µM (inactive)	> 100 µM (inactive)	> 41 µM	> 44.7 µM (inactive)	> 100 µM (inactive)	> 100 µM (inactive)	
Nc1cc(N2CCCC2)nc(=O)n1Cc1ccccc1	> 100 µM (inactive)	> 100 µM (inactive)	> 100 µM (inactive)	> 100 µM (inactive)	> 100 µM (inactive)	> 100 µM (inactive)	> 100 µM (inactive)		> 100 µM (inactive)	> 100 µM (inactive)	> 100 µM (inactive)	> 100 µM (inactive)	> 100 µM (inactive)	> 100 µM (inactive)		> 100 µM	> 100 µM (inactive)	> 100 µM (inactive)	> 100 µM (inactive)	
N#Cc1ccc(-c2nc3cc(Cl)ccc3[nH]2)cc1	42.8 µM (inactive)		> 100 µM (inactive)	40.2 µM (inactive)	> 100 µM (inactive)	23.1 µM (inactive)			30.4 µM (inactive)	41.2 µM (inactive)		80 µM (inactive)	> 100 µM (inactive)			39.9 µM	50.2 µM (inactive)	44.6 µM (inactive)	54.2 µM (inactive)	35.6 µM (inactive)
CCOC(=O)c1c(N)sc2c1C(C(=O)OCC)CCCC2 (stereo not given)	89.3 µM (inactive)	> 100 µM (inactive)	71.6 µM (inactive)	32.9 µM (inactive)	46.8 µM (inactive)	29.6 µM (inactive)		> 100 µM (inactive)			35.2 µM (inactive)	34.6 µM (inactive)	46.2 µM (inactive)	57.9 µM (inactive)	20.2 µM (inactive)	67.3 µM	52.8 µM (inactive)			22.5 µM (inactive)
CC1(C)CC(=O)c2c(nc(SSc3nc4c(c(-c5ccc(Br)cc5)c3C#N)C(=O)CC(C)(C)C4)c(C#N)c2-c2ccc(Br)cc2)C1	> 10 µM (inactive)	> 10 µM (inactive)	> 10 µM (inactive)	> 10 µM (inactive)		> 10 µM (inactive)		> 10 µM (inactive)	> 10 µM (inactive)	> 10 µM (inactive)	> 10 µM (inactive)	> 10 µM (inactive)	> 10 µM (inactive)	> 10 µM (inactive)	> 10 µM (inactive)	> 10 µM	> 10 µM (inactive)	> 10 µM (inactive)	> 10 µM (inactive)	> 10 µM (inactive)
NCC(Cc1ccccc1)P(=O)(O)O (stereo not given)	> 100 µM (inactive)	> 100 µM (inactive)	> 100 µM (inactive)	> 100 µM (inactive)	> 100 µM (inactive)	> 100 µM (inactive)	> 100 µM (inactive)	> 100 µM (inactive)	> 100 µM (inactive)	> 100 µM (inactive)	> 100 µM (inactive)			> 100 µM (inactive)	> 100 µM (inactive)	> 100 µM	> 100 µM (inactive)	> 100 µM (inactive)	> 100 µM (inactive)	> 100 µM (inactive)
CCOc1cc(-c2nc3cc(F)ccc3s2)ccc1O	15.8 µM (inactive)	18.7 µM (inactive)	16.5 µM (inactive)	14.5 µM (inactive)	21.8 µM (inactive)		18.2 µM (inactive)	27.6 µM (inactive)	23 µM (inactive)	0.6 µM (active)	17.3 µM (inactive)		10.7 µM (inactive)	16.8 µM (inactive)	12.6 µM (inactive)	14.9 µM	< 0.01 µM (active)	20 µM (inactive)	16.9 µM (inactive)	11.6 µM (inactive)
O=C(NNC(=O)/C(=C/c1cccc([N+](=O)[O-])c1)NC(=O)c1ccccc1)Nc1ccc(Cl)cc1	14.2 µM (inactive)	15.5 µM (inactive)	12.7 µM (inactive)			3.94 µM (inactive)		15.5 µM (inactive)		6.58 µM (inactive)	14.6 µM (inactive)	7.74 µM (inactive)	9.55 µM (inactive)	17.6 µM (inactive)	10.6 µM (inactive)	12.2 µM	5.66 µM (inactive)	18.7 µM (inactive)	19.9 µM (inactive)	
[O-][S+](Nc1ccccc1)c1ccc(Cl)c(Cl)c1 (stereo not given)	66.4 µM (inactive)	> 100 µM (inactive)	62.8 µM (inactive)		40.9 µM (inactive)	23.7 µM (inactive)	24.2 µM (inactive)	> 100 µM (inactive)	37.5 µM (inactive)	> 100 µM (inactive)	31.3 µM (inactive)	26.4 µM (inactive)	51.6 µM (inactive)	62.2 µM (inactive)		57.3 µM	39.9 µM (inactive)	24.2 µM (inactive)		10.3 µM (inactive)
Nc1ncnc2c1ccn2CC=C(CO)CO	> 100 µM (inactive)	> 100 µM (inactive)	> 100 µM (inactive)	> 100 µM (inactive)	> 100 µM (inactive)	> 100 µM (inactive)	> 100 µM (inactive)	> 100 µM (inactive)	> 100 µM (inactive)	> 100 µM (inactive)	> 100 µM (inactive)		> 100 µM (inactive)	> 100 µM (inactive)	> 100 µM (inactive)	> 100 µM	> 100 µM (inactive)	> 100 µM (inactive)	> 100 µM (inactive)	> 100 µM (inactive)
COc1ccc(N2C(=O)C(=O)C3(CCCCC3)C2=O)c(OC)c1OC	> 100 µM (inactive)	> 100 µM (inactive)	> 100 µM (inactive)	> 100 µM (inactive)		> 100 µM (inactive)	> 100 µM (inactive)	> 100 µM (inactive)	> 100 µM (inactive)	> 100 µM (inactive)		> 100 µM (inactive)	> 100 µM (inactive)	> 100 µM (inactive)		> 100 µM		> 100 µM (inactive)	> 100 µM (inactive)	> 100 µM (inactive)
O=C(Nc1cccc(C(F)(F)F)c1)C(=O)C1NC(=S)NC1=O (stereo not given)	> 100 µM (inactive)	> 100 µM (inactive)	> 100 µM (inactive)			> 100 µM (inactive)		> 100 µM (inactive)		54.5 µM (inactive)	> 100 µM (inactive)	> 100 µM (inactive)	> 100 µM (inactive)	31.6 µM (inactive)	> 100 µM (inactive)	35.3 µM	71.1 µM (inactive)	> 100 µM (inactive)	> 100 µM (inactive)	
O=C1CCCCC/C1=C\c1ccc(F)cc1		50.8 µM (inactive)	> 100 µM (inactive)	> 100 µM (inactive)	> 100 µM (inactive)	67.3 µM (inactive)	74.1 µM (inactive)	> 100 µM (inactive)		24.4 µM (inactive)	50.1 µM (inactive)	47.6 µM (inactive)	45.2 µM (inactive)	52.2 µM (inactive)	> 100 µM (inactive)	> 100 µM	> 100 µM (inactive)	> 100 µM (inactive)	> 100 µM (inactive)	> 100 µM (inactive)
